“Also recorded” adds a separate entry of the source.
Tests used:
GlyT2 [1] = molecular target: T1, GlyT2 (Homo sapiens, UniProt Q9Y345); assay: Two-electrode voltage clamp of glycine transport currents in Xenopus laevis oocytes expressing GlyT2; assay type: cell-based; conditions: for reversibility: restoration of glycine transport currents after washout: inhibition at IC50 concentrations (1: 4 nM, 2: 50 nM), washed with ND96 for 30 min, glycine reapplied at 5 min intervals; for IC50: oocytes expressing GlyT2, Figure 4A, range in brackets, read-out: IC50, reduction of glycine transport currents
T1 construct: expressed in transfected cells; host or cells: Xenopus laevis oocytes injected with in vitro transcribed RNA
T1 sequence (Q9Y345 1-797): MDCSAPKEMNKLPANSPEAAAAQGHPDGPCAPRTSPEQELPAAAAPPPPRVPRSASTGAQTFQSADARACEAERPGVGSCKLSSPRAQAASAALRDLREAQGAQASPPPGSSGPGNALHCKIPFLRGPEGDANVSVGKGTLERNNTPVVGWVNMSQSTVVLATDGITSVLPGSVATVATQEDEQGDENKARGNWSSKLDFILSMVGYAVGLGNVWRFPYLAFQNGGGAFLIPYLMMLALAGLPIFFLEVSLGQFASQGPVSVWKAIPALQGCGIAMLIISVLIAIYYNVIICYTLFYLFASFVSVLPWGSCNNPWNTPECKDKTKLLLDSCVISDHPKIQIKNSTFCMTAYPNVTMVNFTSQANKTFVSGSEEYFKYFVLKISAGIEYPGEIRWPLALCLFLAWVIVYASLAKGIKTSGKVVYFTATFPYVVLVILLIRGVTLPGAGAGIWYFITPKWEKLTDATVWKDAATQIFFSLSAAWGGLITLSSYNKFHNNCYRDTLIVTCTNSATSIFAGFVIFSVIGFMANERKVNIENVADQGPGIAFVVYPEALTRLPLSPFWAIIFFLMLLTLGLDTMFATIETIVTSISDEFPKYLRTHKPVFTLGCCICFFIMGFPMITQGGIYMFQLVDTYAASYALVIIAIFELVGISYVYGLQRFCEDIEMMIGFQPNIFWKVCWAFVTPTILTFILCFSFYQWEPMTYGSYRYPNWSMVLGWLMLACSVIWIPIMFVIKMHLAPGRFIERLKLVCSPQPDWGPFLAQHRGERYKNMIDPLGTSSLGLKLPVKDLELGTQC

GlyT2 [2] = test system: GlyT2; design: method as in PMID 23962079; conditions: cited from earlier work; for IC50: two-electrode voltage clamp, Xenopus laevis oocytes expressing GlyT2, read-out: IC50 at GlyT2 (potency); for reversibility of GlyT2 inhibition: washout from oocytes expressing GlyT2
[3] = test system: rodent models of neuropathic pain; conditions: cited from earlier work
mouse spinal cord slices = test system: mouse spinal cord slices; design: method as in PMID 15235081; conditions: exposure of mouse spinal cord slices for >10 min; cited from earlier work
rodents = conditions: cited from earlier work
[4] = design: method as in PMID 23962079; conditions: cited from earlier work

| SMILES | reversibility: restoration of glycine transport currents after washout (GlyT2 [1]) | IC50 (GlyT2 [1]) [nM] | IC50 (GlyT2 [2]) [nM] | reversibility of GlyT2 inhibition (GlyT2 [2]) | effect on neuropathic pain (hyperalgesia and allodynia) [3] | effect on inhibitory postsynaptic currents (mouse spinal cord slices) | toxicity on acute dosing in rodents (rodents) | analgesia in rodent models of neuropathic pain [3] | blood brain barrier permeability [4] | adverse side effects (rodents; rodent) | EC50 (GlyT2 [1]) [nM] |
| --- | --- | --- | --- | --- | --- | --- | --- | --- | --- | --- | --- |
| COc1cc(C(=O)NCC2(N(C)C)CCCC2)cc(OC)c1OCc1ccccc1 [ORG25543] | no reversibility | 3.76 | 20 | irreversible; also recorded: cannot be restored | ameliorates both hallmarks of neuropathic pain | long-term reduction of inhibitory postsynaptic currents | excitotoxicity, hyperekplexia-like symptoms, and in severe cases death |  |  |  |  |
| COc1cc(C(=O)NCC2(N(C)C)CCCCC2)ccc1OCc1ccccc1 [compound 2] | restoration of glycine transport currents | 48.5 | 100 | readily reversible; also recorded: allows for restoration of glycine currents |  |  |  | produced analgesia | blood brain barrier permeable | no adverse side effects |  |
| NCC(=O)O [glycine] |  |  |  |  |  |  |  |  |  |  | 14300 |
